# In patent publication US20120015399A1, “FLUORESCENT SOLVATOCHROMIC PIGMENT” (National University Corporation Hokkaido University, priority 2009, published 2012):
# What was measured:
# [1] = Absorption spectra of thiophene derivatives in solvents of different polarity; format: physicochemical; conditions: for Molar absorption coefficient: at maximum absorption wavelength
# Experimental: (§1) In the present Example, the thiophene derivatives (Compounds 3 to 6) obtained in Synthesis Examples 1 and 2 were dissolved in a variety of solvents with different polarity, and the absorption and the fluorescent spectra were measured.
# Now, the solvent polarity ET(30) (kcal/mole) was obtained by dissolving the betaine dye of the following formula that is a light absorbing solvatochromic dye in each solvent and incorporating the maximum absorption wavelength, λ (nm), into the equation ET(30)=28591/λ.
# The thiophene derivative solutions were prepared by using a standard solvent for spectral measurement (Wako Pure Chemical Industries, Ltd.) in concentrations of from […] to 1.2×10^−5M, and absorptions were measured with a visible/ultraviolet spectrophotometer (V-560 UV/VIS Spectrophotometer manufactured by JASCO Corporation). The maximum absorption wavelength (nm) is shown in Table 2, and the molar absorption coefficient (mol^−1cm^−1) at the maximum absorption wavelength is shown in Table 3. The numbers in the tables indicate compound numbers.
# [2] = Fluorescence spectra of thiophene derivatives in solvents of different polarity; format: physicochemical
# Experimental: as §1
# Next, fluorescence spectra of the thiophene derivatives were measured. The fluorescence spectra were measured using the same samples used for the absorption spectra and using a fluorescence spectrophotometer (F-4500 manufactured by Hitachi Ltd.)
# The numbers in the table indicate compound numbers.
# [3] = Fluorescence colour in aqueous synthetic detergent solutions of different pH; format: physicochemical; conditions: blue light 450 nm
# Experimental: In the present Example, Compound 6 was dissolved in aqueous synthetic detergent solutions having different pH values and the fluorescence was measured.
# Compound 6 (0.1 g each) obtained in Synthesis Example 2 was placed in three test tubes, and 10 ml each of deionized water and one drop of weakly acidic “Biore” (liquid detergent of Kao Corporation), “COOP K Soft” (liquid detergent of Cope Green K.K.) or “My Pet” (liquid detergent of Kao Corporation) were added. Aqueous solutions of Compound 6 were obtained by dissolving the compound using ultrasonic irradiation. The solutions were irradiated with blue light (450 nm) using a full color LED flash light (MFL 143-FB manufactured by Anteya Technology Corporation). The fluorescent color observed was orange in a weakly acidic environment (pH=5), red in a neutral environment […] and crimson in a weakly alkaline environment (pH=8).
# [4] = tested on: human colon cancer cell T84; assay: Staining of cultured cells, confocal laser fluorescence microscopy; format: cell-based
# Experimental: In the present Example, Compound 7 was introduced into cultured human colon cancer cell T84 and its image was observed using a fluorescence microscope.
# Human colon cancer cell T84 culture (cell stock-microbial stock-gene bank (ATCC) number CCL-248, supplied by Summit Pharmaceuticals International Corporation) in a sub-confluent state that had been cultured (37° C., 5% CO2) for two to four days in a glass bottom dish (35 mm, Matsunami Glass Ind., Ltd.) was washed with phosphoric acid buffered physiological saline solution. One hundred microliters of a DMSO solution of 2×10^−5 M of Compound 7 was added dropwise near the cells, and a reaction was allowed to occur for five minutes at room temperature. The cells were washed again using phosphoric acid buffered physiological saline solution and were immediately exposed to an argon laser (488 nm) to reach an excited state in the phosphoric acid buffered physiological saline solution. The response was observed using a confocal laser microscope (LSM510META manufactured by Carl Zeiss).
# In the present Comparative Example, the compound shown below described in Reference 3 (Japanese Patent Application Public Disclosure No. 2008-291210) was used in place of Compound 7, and the fluorescence microscope images of the cultured human colon cancer cell T84 were examined in the manner described in Example 5.
# [5] = tested on: macrophage cells (RAW264); assay: Staining of macrophage cells, confocal laser fluorescence microscopy; format: cell-based; conditions: stain solution in calf serum/D-MEM 1:9, fifteen minutes, 37° C., argon laser 488 nm, FIG. 9
# Experimental: In the present Example, macrophage cells were stained using the pyridinium derivatives shown in Table 1 and the differences in cell staining were compared in order to investigate the effects of the alkyl chain lengths in R^7 and R^8.
# Several micrograms of each pyridinium derivative (Compounds 10 and 21 to 23) were added to 10 milliliters of a liquid medium obtained by mixing calf serum and D-MEM base medium in a 1:9 ratio. The mixtures were left standing in a refrigerator overnight to dissolve the solids. 5 milliliters of the supernatant solutions were removed the next day and were used as cell staining solutions after filtering the solutions through sterilizing membrane filters with a pore diameter of […] p.m.
# The macrophage cells (RAW264 of ATCC Co., Ltd.) were floated in HydroCell dishes manufactured by Cell Seed Co., Ltd. using a liquid culture obtained by mixing calf serum and D-MEM base medium in a 1:9 ratio.
# The media were removed from the glass bottom dishes on which the RAW264 cells were supported, and 0.2 ml of each stain solution was added. The cells were stained by leaving the dish standing for fifteen minutes in a CO2 incubator at 37° C. The stain solutions were subsequently removed, and the media were exchanged three times using a liquid medium obtained by mixing calf serum and D-MEM base medium in 1:9 ratio. […] The results are shown in terms of fluorescence microscopic images (FIG. 9).
# [6] = Fluorescence emission in water in the presence of additives (lecithin, β-cyclodextrin, Triton X-100, CTAB, SDS); format: physicochemical; conditions: additives in deionized water, excitation 488 nm, FIG. 5
# Experimental: After adding 5 milliliters of deionized water, the mixtures were sonicated with ultrasound for 20 seconds. The supernatant solution was irradiated with light at 488 nm, and the light emitted was measured using a fluorescence spectrophotometer (F-4500). […] After adding 5 milliliters of deionized water, the mixtures were sonicated with ultrasound for 20 seconds. The supernatant solution was irradiated with light at 450 nm, and the light emitted was measured using a fluorescence spectrophotometer (F-4500).
# [7] = tested on: human fetus kidney-derived HEK293 cells; assay: Staining of HEK293 cells, location of dye and emitted light wavelength; format: cell-based; conditions: stain solution in calf serum/D-MEM 1:9, fifteen minutes, 37° C., argon laser 488 nm, FIG. 10
# Experimental: In the present Example, human fetus kidney-derived HEK293 cells were stained using Compound 10, and the location of the dye and emitted light wavelength were examined.
# Several micrograms of Compound 10 was added to 10 milliliters of a liquid medium obtained by mixing calf serum and D-MEM base medium in a 1:9 ratio. The mixture was left standing in a refrigerator overnight to dissolve the solids. 5 milliliters of the supernatant solution was removed the next day and was used as a cell staining solution after filtering the solution through a sterilizing membrane filter with a pore diameter of […]
# The human fetus kidney-derived cells HEK293 (Riken Cell Bank) were cultured in a five milliliter culture flask using a liquid culture obtained by mixing calf serum and D-MEM base medium in a 1:9 ratio. The solution was used to inoculate a glass bottom dish.
# The medium was removed from the glass bottom dish on which the HEK293 cells were supported, and 0.2 ml of the stain solution was added. The cells were stained by leaving the dish standing for fifteen minutes in a CO2 incubator at 37° C. The stain solution was subsequently removed, and the medium was exchanged three times using a liquid medium obtained by mixing calf serum and D-MEM base medium in a 1:9 ratio.
# [8] = 1,4-Dioxane, solvent polarity ET(30) 36.0
# [9] = Acetone, solvent polarity ET(30) 42.2
# [10] = DMSO, solvent polarity ET(30) 45.1
# [11] = Comparative Example 1, blue diode laser 405 nm, FIG. 11
compound,measurement,setting,value
"CCCCCCN(CCCCCC)c1ccc(-c2ccc(-c3ncccn3)s2)cc1 [Compound 5, N,N-dihexyl-4-[5-(pyrimidine-2-yl)thiophene-2-yl]aniline]",Maximum absorption wavelength,[1]; [8],395 nm
same,Maximum absorption wavelength,[1]; [9],395 nm
same,Maximum absorption wavelength,[1]; [10],406 nm
same,Molar absorption coefficient,"[1]; 1,4-Dioxane, ET(30) 36.0","33,000 mol^−1cm^−1"
same,Molar absorption coefficient,"[1]; Acetone, ET(30) 42.2","33,000 mol^−1cm^−1"
same,Molar absorption coefficient,"[1]; DMSO, ET(30) 45.1","31,000 mol^−1cm^−1"
same,Maximum fluorescence emission wavelength,"[2]; 1,4-Dioxane, ET(30) 36.0",472 nm
same,Maximum fluorescence emission wavelength,"[2]; Acetone, ET(30) 42.2",507 nm
same,Maximum fluorescence emission wavelength,"[2]; DMSO, ET(30) 45.1",522 nm
"CCCCCCN(CCCCCC)c1ccc(-c2ccc(-c3ccccn3)s2)cc1 [Compound 4, N,N-dihexyl-4-[5-(pyridine-2-yl)thiophene-2-yl]aniline]",Maximum absorption wavelength,[1]; [8],387 nm
same,Maximum absorption wavelength,[1]; [9],385 nm
same,Maximum absorption wavelength,[1]; [10],395 nm
same,Molar absorption coefficient,"[1]; 1,4-Dioxane, ET(30) 36.0","33,000 mol^−1cm^−1"
same,Molar absorption coefficient,"[1]; Acetone, ET(30) 42.2","33,000 mol^−1cm^−1"
same,Molar absorption coefficient,"[1]; DMSO, ET(30) 45.1","31,000 mol^−1cm^−1"
same,Maximum fluorescence emission wavelength,"[2]; 1,4-Dioxane, ET(30) 36.0",459 nm
same,Maximum fluorescence emission wavelength,"[2]; Acetone, ET(30) 42.2",488 nm
same,Maximum fluorescence emission wavelength,"[2]; DMSO, ET(30) 45.1",507 nm
"CCCCCCN(CCCCCC)c1ccc(-c2ccc(-c3cc[n+](C)cc3)s2)cc1.[I-] [Compound 6, 4-[5-(4-dihexylamino)phenyl]thiophene-2-yl-1-methylpyridinium iodide]",Fluorescent color observed,[3]; neutral environment (pH=6),red
same,Fluorescent color observed,[3]; weakly acidic environment (pH=5),orange
same,Fluorescent color observed,[3]; weakly alkaline environment (pH=8),crimson
same,Excitation by commonly encountered argon lasers (488 nm),[1],could be efficiently excited
same,Maximum absorption wavelength,[1]; [8],490 nm
same,Maximum absorption wavelength,[1]; [9],501 nm
same,Maximum absorption wavelength,[1]; [10],497 nm
same,Molar absorption coefficient,"[1]; 1,4-Dioxane, ET(30) 36.0","26,000 mol^−1cm^−1"
same,Molar absorption coefficient,"[1]; Acetone, ET(30) 42.2","36,000 mol^−1cm^−1"
same,Molar absorption coefficient,"[1]; DMSO, ET(30) 45.1","36,000 mol^−1cm^−1"
same,Maximum fluorescence emission wavelength,"[2]; 1,4-Dioxane, ET(30) 36.0",568 nm
same,Maximum fluorescence emission wavelength,"[2]; Acetone, ET(30) 42.2",639 nm
same,Maximum fluorescence emission wavelength,"[2]; DMSO, ET(30) 45.1",653 nm
same,"Absorption and emission wavelengths, compared",[2]; versus Compounds 3 to 5,significantly longer absorption and emission wavelengths than Compounds 3 to 5
CN(C)c1ccc(-c2ccc(-c3ccc(S(=O)(=O)OCC(C)(C)C)cc3)s2)cc1 [reference compound],Cell staining,[4]; [11],the cell membrane was selectively labeled with fluorescence
same,Change of fluorescence wavelength between cell sections,[4]; [11],remained almost unchanged
"CCCCCCN(CCCCCC)c1ccc(-c2ccc(-c3cc[n+](C)cc3)s2)cc1.O=S(=O)([O-])C(F)(F)F [Compound 10, {4-[5-(4-dihexylamino)phenyl]thiophene-2-yl}-1-methylpyridinium trifluoromethane sulfonate]",Cell staining pattern,[5],the cell membrane and mitochondria were selectively stained
same,Fluorescence wavelength response to local environment,[6],respond sensitively to the local environment in terms of fluorescence wavelength
same,Emitted light color by location in cell,[7],different for the cell membrane (1 in the figure) and mitochondria
"CCCCCCN(CCCCCC)c1ccc(-c2ccc(-c3ccncc3)s2)cc1 [Compound 3, N,N-dihexyl-4-[5-(pyridine-4-yl)thiophene-2-yl]aniline]",Maximum absorption wavelength,[1]; [8],389 nm
same,Maximum absorption wavelength,[1]; [9],391 nm
same,Maximum absorption wavelength,[1]; [10],401 nm
same,Molar absorption coefficient,"[1]; 1,4-Dioxane, ET(30) 36.0","31,000 mol^−1cm^−1"
same,Molar absorption coefficient,"[1]; Acetone, ET(30) 42.2","33,000 mol^−1cm^−1"
same,Molar absorption coefficient,"[1]; DMSO, ET(30) 45.1","32,000 mol^−1cm^−1"
same,Maximum fluorescence emission wavelength,"[2]; 1,4-Dioxane, ET(30) 36.0",467 nm
same,Maximum fluorescence emission wavelength,"[2]; Acetone, ET(30) 42.2",507 nm
same,Maximum fluorescence emission wavelength,"[2]; DMSO, ET(30) 45.1",522 nm
"CCCCCCN(CCCCCC)c1ccc(-c2ccc(-c3cc[n+](C)cc3)s2)cc1.F[B-](F)(F)F [Compound 7, 4-[5-(4-dihexylamino)phenyl]thiophene-2-yl-1-methylpyridinium tetrafluoroborate]",Cell staining,"[4]; 2×10^−5 M in DMSO, five minutes, room temperature, argon laser 488 nm, FIG. 7",cell membranes of colon cancer cells T84 are stained
same,Laser caused fading,"[4]; confocal laser microscope, conditions of the experiment",did not undergo laser caused fading
"CCCCN(CCCC)c1ccc(-c2ccc(-c3cc[n+](C)cc3)s2)cc1.O=S(=O)([O-])C(F)(F)F [Compound 22, 4-[5-(4-dibutylamino)phenyl]thiophene-2-O-1-methylpyridinium trifluoromethane sulfonate]",Cell staining pattern,[5],the cell membrane and mitochondria were selectively stained
CCN(CC)c1ccc(-c2ccc(-c3cc[n+](C)cc3)s2)cc1.O=S(=O)([O-])C(F)(F)F [Compound 21],Cell staining pattern,[5],Entire cells were stained with fluorescence
CCCCCCCCN(CCCCCCCC)c1ccc(-c2ccc(-c3cc[n+](C)cc3)s2)cc1.O=S(=O)([O-])C(F)(F)F [Compound 23],Cell staining pattern,[5],the entire cell was stained with fluorescence but the fluorescence intensity was low and the stain was not even
